# Assay results: patent publication EP0393604B1, “6,11-Dihydro-5H-pyrido(2,3-b)(1,5,)benzodiazepin-5-ones and thiones and their use in the prevention or treatment of AIDS” (priority 1989, dated 1990)
# Read-outs that look alike come from different tables or passages of the source.
# Molecular target: T1, HIV-1 RT (Human immunodeficiency virus type 1 group M subtype B, UniProt P03367)
# T1 construct: Reverse transcriptase enzyme from the LAV strain of Human Immunodeficiency Virus (HIV-1) (1) was isolated from the bacterial strain JM109; made in house; host or cells: E. coli JM109, clone pBRTprt1+ in vector pIBI21, lac promoter, IPTG induction
# Assay: Reverse Transcriptase (RT) Assay: inhibition of RNA-dependent DNA polymerase activity
# Type: biochemical
# Settings: for inhibition at 10 µg/mL: read-out: RT Inhibition % @ 10µg/ml
# From the text: Utilizing the Reverse Transcriptase (RT) Assay descibed below, compounds can be tested for their ability to inhibit the RNA-dependent DNA polymerase activity of HIV-1 RT. Certain specific compounds of formula I described in the Examples which appear below, were so tested. The above-described compounds of formula IA were also so tested.
# Among the enzymes for which Human Immunodeficiency Virus (HIV-1) encodes is a reverse transcriptase (1), so-named because it transcribes a DNA copy from an RNA template. This activity can be quantitatively measured in a cell-free enzyme assay which has been previously described (2), and is based upon the observation that reverse transcriptase is able to use a synthetic template [poly r(C) primed with oligo d(G)] to transcribe a radio-labelled, acid-precipitable DNA strand utilizing ^3H-dGTP as a substrate.
# Reverse transcriptase enzyme from the LAV strain of Human Immunodeficiency Virus (HIV-1) (1) was isolated from the bacterial strain JM109 (3) expressing the DNA clone pBRTprt1+ (2) which is under the control of the lac promoter in the expression vector pIBI21 (4). An overnight culture grown in 2XYT medium (37°C, 225 rpm) (5) supplemented with 100 µg/ml ampicillin for positive selection is inoculated at a 1:40 dilution into M9 medium supplemented with 10µg/ml thiamine, 0.5% casamino acids, and 50 µg/ml ampicillin (5). The culture is incubated (37°C, 225 rpm) until it reaches an OD540 of 0.3-0.4. At that time the repressor inhibitor IPTG (isopropyl b-D-thiogalactopyranoside) is added to 0.5mM and the mixture is incubated for 2 additional hours. Bacteria are pelleted, resuspended in a 50mM Tris, 0.6mM EDTA, 0.375M NaCl buffer and digested by the addition of lysozyme (1mg/ml) for 30 minutes on ice. The cells are lysed by the addition of 0.2% NP-40 and brought to 1M NaCl.
# After removal of the insoluble debris by centrifugation, the protein is precipitated by the addition of 3 volumes of water-saturated ammonium sulfate. The enzyme is pelleted, resuspended in RT buffer (50mM Tris pH 7.5. 1mM EDTA, 5mM DTT, 0.1% NP-40, 0.1M NaCl, and 50% glycerol), and stored at -70°C for further use.
# The 2X concentrated stock reaction mixture is aliquoted and stored at -20°C. The mixture is stable and thawed for use in each assay. This enzyme assay has been adapted to a 96 well microtiter plate system, and has been previously described (6). Tris buffer (50 mM, pH 7.4), vehicle (solvent diluted to match the compound dilution), or compounds in vehicle are dispensed into 96-well microtiter plates (10µl/well: 3 wells/compound). The HIV-1 RT enzyme is thawed and diluted in 50mM Tris pH 7.4 so that fifteen µl of diluted enzyme contain 0.001 Unit (one unit is that amount of enzyme to transform 1 micromole of substrate per minute at 25°C) and 15µl are dispensed per well. Twenty µl of 0.12 - 0.5M EDTA are added to the first three wells of the microtiter plate. EDTA chelates the Mg^++ present and prevents reverse transcription. This group serves as background polymerization which is subtracted from all other groups. Twenty-five ul of the 2X reaction mixture are added to all wells and the assay is allowed to incubate at room temperature for 60 minutes. The assay is terminated by precipitating the DNA in each well with 50µl of trichloracetic acid (TCA) (10% w/v) in sodium pyrophosphate (1% w/v). The microtiter plate is incubated for 15 minutes at 4°C and the precipitate is fixed onto #30 glass fiber paper (Schleicher & Schuell) using a Skatron semi-automatic harvester. The filters are then washed with additional TCA (5%) containing sodium pyrophosphate (1%), rinsed with aqueous ethanol (70%), dried, and transferred to scintillation vials (6). Each vial receives 2 mls of scintillation cocktail and is counted in a Beckman beta counter. […]
# [1] = 10µg/ml, Table I, compounds of formula I
# [2] = 10µg/ml, Table II, known compounds of formula IA
SMILES,inhibition at 10 µg/mL [1],further results
"CN1c2ccccc2NC(=O)c2cccnc21 [Example 1, 6,11-Dihydro-11-methyl-5H-pyrido[2,3-b][1,5]benzodiazepin-5-one]",37%,
"CCCN1c2ccccc2N(C)C(=O)c2cccnc21 [Example 3, 6,11-Dihydro-6-methyl-11-propyl-5H-pyrido[2,3-b][1,5]benzodiazepin-5-one]",92%,
"CCCCN1c2ccccc2N(C)C(=O)c2cccnc21 [Example 6, 11-Butyl-6,11-dihydro-6-methyl-5H-pyrido[2,3-b][1,5]-benzodiazepin-5-one]",46%,
"CN1C(=O)c2cccnc2N(CCO)c2ccccc21 [Example 7, 6,11-Dihydro-11-(2-hydroxyethyl)-6-methyl-5H-pyrido[2,3-b][1,5]benzodiazepin-5-one]",50%,
"CN1C(=O)c2cccnc2N(C)c2ccccc21 [Example 10, 6,11-Dihydro-6,11-dimethyl-5H-pyrido[2,3-b][1,5]benzodiazepin-5-one]",68%,
"CCN1C(=O)c2cccnc2N(C)c2ccccc21 [Example 11, 6,11-Dihydro-6-ethyl-11-methyl-5H-pyrido[2,3-b][1,5]benzodiazepin-5-one]",88%,
"CCCN1C(=O)c2cccnc2N(C)c2ccccc21 [Example 12, 6,11-Dihydro-11-methyl-6-propyl-5H-pyrido[2,3-b][1,5]benzodiazepin-5-one]",89%,
"CC(C)N1C(=O)c2cccnc2N(C)c2ccccc21 [Example 13, 6,11-Dihydro-11-methyl-6-methylethyl-5H-pyrido[2,3-b][1,5]benzodiazepin-5-one]",91%,
"CCCCN1C(=O)c2cccnc2N(C)c2ccccc21 [Example 14, 6-Butyl-6,11-dihydro-11-methyl-5H-pyrido[2,3-b][1,5] benzodiazepin-5-one]",75%,
"Cc1cc(C)c2c(n1)N(C)c1cc(C)c(C)cc1N(C)C2=O [Example 16, 6,11-Dihydro-2,4,6,8,9,11-hexamethyl-5H-pyrido[2,3-b][1,5]benzodiazepin-5-one]",44%,
"CC(=O)N1c2ccccc2N(C)C(=O)c2cccnc21 [Example 18, 11-Acetyl-6,11-dihydro-6-methyl-5H-pyrido[2,3-b][1,5]benzodiazepin-5-one]",29%,
"CSCN1C(=O)c2cccnc2N(CSC)c2cc(Cl)ccc21 [Example 20, 6,11-bis-(methylthiomethyl)-9-chloro-6,11-dihydro-5H-pyrido-[2,3-b][1,5]benzodiazepin-5-one]",69%,
"CCN1C(=O)c2cccnc2N(CC)c2ccccc21 [Example 21, 6,11-Diethyl-6,11-dihydro-5H-pyrido[2,3-b][1,5]benzodiazepin-5-one]",96%,
"CCN1c2ccccc2NC(=O)c2cccnc21 [Example 23, 6,11-Dihydro-11-ethyl-5H-pyrido[2,3-b][1,5]benzodiazepin-5-one]",100%,
"CCN1c2ccccc2NC(=S)c2cccnc21 [Example 24, 6,11-Dihydro-11-ethyl-5H-pyrido[2,3-b][1,5]benzodiazepin-5-thione]",,inhibition at 10 µg/mL: 100%
"CN1C(=O)c2cccnc2N(Cc2ccccc2)c2ccccc21 [Example 25, 6,11-Dihydro-11-benzyl-6-methyl-5H-pyrido[2,3-b][1,5]benzodiazepin-5-one]",73%,
"CN1C(=O)c2cccnc2N(CC(=O)OC(C)(C)C)c2ccccc21 [Example 26, 6,11-Dihydro-11-(t-butoxycarbonyl)methyl-6-methyl-5H-pyrido[2,3-b][1,5] benzodiazepin-5-one]",81%,

SMILES,inhibition at 10 µg/mL [1],further results
"CCOC(=O)CN1c2ccccc2N(C)C(=O)c2cccnc21 [Example 27, 6,11-Dihydro-11-(ethoxycarbonyl)methyl-6-methyl-5H-pyrido[2,3-b][1,5] benzodiazepin-5-one]",64%,
"Cc1cc2c(cc1C)N(C)C(=O)c1cccnc1N2 [Example 28, 6,11-Dihydro-6,8,9-trimethyl-5H-pyrido[2,3-b][1,5]benzodiazepin-5-one]",65%,
"CCN1c2cc(C)c(C)cc2N(C)C(=O)c2cccnc21 [Example 29, 6,11-Dihydro-11-ethyl-6,8,9-trimethyl-5H-pyrido[2,3-b][1,5]benzodiazepin-5-one]",99%,
"CCN1c2ccc(C(=O)OC)cc2N(C)C(=O)c2cccnc21 [Example 30, 6,11-Dihydro-8-methoxycarbonyl-11-ethyl-6-methyl-5H-pyrido[2,3-b][1,5] benzodiazepin-5-one]",94%,
"CCN1C(=O)c2cccnc2Nc2cccc(C)c21 [Example 31, 6,11-Dihydro-6-ethyl-7-methyl-5H-pyrido[2,3-b][1,5]benzodiazepin-5-one]",92%,
"Cc1cccc2c1NC(=O)c1cccnc1N2 [Example 32, 6,11-Dihydro-7-methyl-5H-pyrido[2,3-b][1,5]benzodiazepin-5-one]",51%,
"CN1C(=O)c2cccnc2N(CCF)c2ccccc21 [Example 33, 6,11-Dihydro-11-(2-fluoroethyl)-6-methyl-5H-pyrido[2,3-6][1,5]benzodiazepin-5-one]",,inhibition at 10 µg/mL: 97%
"CCN1c2ccccc2N(CF)C(=O)c2cccnc21 [Example 34, 6,11-Dihydro-11-ethyl-6-fluoromethyl-5H-pyrido-[2,3-b][1,5]benzodiazepin-5-one]",85%,
"Cc1ccc2c(c1)N(C)C(=O)c1c(C)cc(C)nc1N2 [Formula IA a, 2,4,6,8-tetramethyl-6,11-dihydro-5H-pyrido[2,3-b][1,5]benzodiazepin-5-one]",,inhibition at 10 µg/mL [2]: 58%
"CN1C(=O)c2cccnc2Nc2ccccc21 [Formula IA b, 6-methyl-6,11-dihydro-5H-pyrido[2,3-b][1,5]benzodiazepin-5-one]",,inhibition at 10 µg/mL [2]: 43%
"O=C1Nc2ccccc2Nc2ncccc21 [Formula IA c, 6,11-dihydro-5H-pyrido[2,3-b][1,5]benzodiazepin-5-one]",,inhibition at 10 µg/mL [2]: 22%
"CCN1C(=O)c2cccnc2Nc2ccccc21 [Formula IA d, 6-ethy-6,11-dihydro-5H-pyrido[2,3-b][1,5]benzodiazepin-5-one]",,inhibition at 10 µg/mL [2]: 69%
"Cc1cc2c(cc1C)N(C)C(=O)c1cccnc1N2 [Formula IA e, 6,8,9-trimethyl-6,11-dihydro-5H-pyrido[2,3-b][1,5]benzodiazepin-5-one]",,RT Inhibition % @ 10µg/ml [2]: 65%
"CCN1C(=O)c2cccnc2Nc2cc(C)c(C)cc21 [Formula IA f, 6-ethyl-8,9-dimethyl-6,11-dihydro-5H-pyrido[2,3-b][1,5]benzodiazepin-5-one]",,inhibition at 10 µg/mL [2]: 95%
"CC(C)CN1C(=O)c2cccnc2Nc2ccccc21 [Formula IA g, 6-isobutyl-6,11-dihydro-5H-pyrido[2,3-b][1,5]benzodiazepin-5-one]",,inhibition at 10 µg/mL [2]: 33%
"CCN1C(=O)c2cccnc2Nc2cc(C)ccc21 [Formula IA h, 6-ethyl-9-methyl-6,11-dihydro-5H-pyrido[2,3-b][1,5]benzodiazepin-5-one]",,inhibition at 10 µg/mL [2]: 78%
